Measurements published in patent EP4722213A1, “NITROGEN-CONTAINING FUNCTIONAL GROUP-SUBSTITUTED PYRIDAZINOPYRIDONE DERIVATIVE AND USE THEREOF” (Sichuan Huiyu Pharmaceutical Co., Ltd., priority 2023, dated 2024).
Where a name gives a salt, the structure may show the parent alone.

Experiments:
SOS1 = target: T1, SOS1 (Homo sapiens, UniProt Q07889); assay: biochemical
T1 sequence (Q07889 1-1333): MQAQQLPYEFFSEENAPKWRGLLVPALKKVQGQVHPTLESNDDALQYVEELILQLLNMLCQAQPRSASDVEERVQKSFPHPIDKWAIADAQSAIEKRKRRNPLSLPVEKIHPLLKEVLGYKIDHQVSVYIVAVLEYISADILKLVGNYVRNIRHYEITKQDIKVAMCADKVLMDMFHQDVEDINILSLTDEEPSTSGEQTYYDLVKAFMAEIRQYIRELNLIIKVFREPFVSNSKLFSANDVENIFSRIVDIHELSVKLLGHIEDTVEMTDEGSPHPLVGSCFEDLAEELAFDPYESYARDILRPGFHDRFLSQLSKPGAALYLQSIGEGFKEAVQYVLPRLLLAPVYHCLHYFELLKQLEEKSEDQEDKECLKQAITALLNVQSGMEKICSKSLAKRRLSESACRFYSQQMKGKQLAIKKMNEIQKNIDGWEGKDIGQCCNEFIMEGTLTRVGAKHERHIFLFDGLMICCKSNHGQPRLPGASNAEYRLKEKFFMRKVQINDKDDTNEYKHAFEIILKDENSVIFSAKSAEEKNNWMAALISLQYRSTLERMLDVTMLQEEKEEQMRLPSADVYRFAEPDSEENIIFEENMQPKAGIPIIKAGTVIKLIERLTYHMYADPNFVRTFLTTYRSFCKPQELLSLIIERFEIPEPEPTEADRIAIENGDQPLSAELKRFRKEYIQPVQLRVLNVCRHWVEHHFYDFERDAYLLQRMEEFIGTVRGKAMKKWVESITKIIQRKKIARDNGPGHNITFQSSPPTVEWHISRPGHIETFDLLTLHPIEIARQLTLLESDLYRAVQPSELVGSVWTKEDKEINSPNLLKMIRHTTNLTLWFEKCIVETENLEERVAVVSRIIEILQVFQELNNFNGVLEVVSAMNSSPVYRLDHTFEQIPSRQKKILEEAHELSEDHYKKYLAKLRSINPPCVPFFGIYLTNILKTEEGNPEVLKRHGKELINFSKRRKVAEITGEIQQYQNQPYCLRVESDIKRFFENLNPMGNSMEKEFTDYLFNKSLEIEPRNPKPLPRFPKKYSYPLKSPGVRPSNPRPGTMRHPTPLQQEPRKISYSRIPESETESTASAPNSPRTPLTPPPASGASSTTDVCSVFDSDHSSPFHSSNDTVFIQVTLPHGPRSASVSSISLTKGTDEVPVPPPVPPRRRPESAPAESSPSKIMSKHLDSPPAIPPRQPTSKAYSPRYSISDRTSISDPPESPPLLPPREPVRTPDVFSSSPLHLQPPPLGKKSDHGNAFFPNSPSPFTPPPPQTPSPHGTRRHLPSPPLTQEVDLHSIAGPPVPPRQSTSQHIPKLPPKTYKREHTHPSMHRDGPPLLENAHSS

[1] = Rat liver microsomal metabolic stability; format: in vitro ADME; details: rat liver microsomes; for half-life at 1 µM: NADPH, 37°C; for CLint scaled at 1 µM: calculated from T1/2, fu defaulted to 1, read-out: CL(liver)
Text: Metabolic stability affects the clearance rate, half-life, and oral bioavailability of compounds in the body, and is one of the most important ADME drug-like properties of compounds. Hepatocyte microsomal stability assay is a commonly used method for studying metabolic stability. In the present disclosure, rat liver microsomes are used to determine and investigate the metabolic stability of compounds.
Preparation of compound stock solution: an appropriate amount of the test compound and testosterone was taken, and a 1 mM stock solution was prepared with DMSO, which was stored in a refrigerator at 4°C.
Preparation of compound working solution: The 1 mM compound stock solution was taken respectively, and then diluted to 100 µM with acetonitrile-water (v:v = 1:1) to obtain the working solution.
Preparation of NADPH working solution: an appropriate amount of NADPH was weighed and dissolved in 16 mM MgCl2 to prepare a NADPH working solution with a concentration of 4.0 mM.
Preparation of rat liver microsome working solution: an appropriate amount of rat liver microsomes was taken and diluted with PBS to obtain a liver microsome working solution with a concentration of 1 mg/mL.
In the incubation system, 48 µL of PBS, 100 µL of rat liver microsome working solution, and 2 µL of the test compound working solution were sequentially added and mixed well. After pre-incubation at 37°C for 5 min, 50 µL of NADPH was added to initiate the reaction. After incubation for the corresponding time points, an appropriate amount of ice-cold acetonitrile containing an internal standard was added to terminate the reaction. The mixture was vortexed to mix well, centrifuged, and the supernatant was collected. The supernatant was injected into LC-MS/MS for detection of the residual metabolic amount of the compound.
Softwares of Excel, etc. were used for data processing according to the following formula. Ct = C0 •e^(−ke •t) [formula] when Ct = (1)/(2)C0 [formula] , T1/2 = (Ln2)/(ke) = (0.693)/(ke) [formula] CLint(mic) = (0.693)/(In vitro T1/2)•(1)/(mg/mL microsomal protein in reaction system) [formula] CLint(liver) = CLint(mic) •(mg microsomes)/(g liver)•(g liver)/(kg body weight) [formula] CL(liver) = (CLint(liver)×fu×Qh)/(CLint(liver)×fu+Qh) [formula] fu (unbound fraction in blood) was defaulted to be 1.

[2] = test system: NCI-H358 non-small cell lung cancer cells; assay: Inhibition of NCI-H358 cell proliferation (CellTiter-Glo 3D, 7 days); format: cell-based; details: Homo sapiens, NCI-H358, 168 h, 3D microspheres, read-out: Inhibitory activity against NCI-H358 cell proliferation (IC50)
Method: The number of viable cells were detected by CellTiter-Glo 3D® reagent, thereby evaluating the inhibitory effect of compounds on cell proliferation. NCI-H358 non-small cell lung cancer cells (Nanjing cobioer) in the exponential growth phase were digested with trypsin-EDTA, and seeded into 96-well ultra-low attachment microplates at 100 µL per well with a density of 2000 cells/well. The cells were cultured overnight at 37°C with 5% CO2 to form microspheres. The test compounds were serially diluted 5-fold with DMSO to obtain 8 concentration gradient dilutions, then diluted with RPMI-1640 (10% FBS) cell culture medium respectively to obtain compound working solutions (2×). 100 µL per well was added to the cell supernatant, and the culture was continued for 7 days under the conditions of 37°C and 5% CO2. The well plate was removed, and 100 µL of CellTiter-Glo 3D® reagent was added. After lysis at room temperature for 10-30 minutes, 70 µL of the lysate was aspirated and transferred to a white opaque 384-well plate.
The inhibition rate was calculated by the following formula: [formula] Note: The negative control refers to the group without inhibitor, and the blank refers to the group without cells.
The inhibitory activities of some Example compounds and comparative compounds against NCI-H358 cell proliferation are shown in Table 2. Table 2. Inhibitory activity of some Example compounds against NCI-H358 cell proliferation

## C[C@@H](Nc1nnc(NC2(C)CC2)c2cc(=O)n(C3(C)CC3)cc12)c1cccc(C(F)F)c1F [Example 11, (R)-4-((1-(3-(difluoromethyl)-2-fluorophenyl)ethyl)amino)-6-(1-methylcyclopropyl)-1-((1-methylcyclopropyl)amino)pyrido[3,4-d]pyridazin-7(6H)-one]
SOS1
  IC50: 1.4 nM
[1]
  half-life at 1 µM: 0.855 h
  CLint scaled at 1 µM: 25.8 mL/min/kg

## C[C@@H](Nc1nnc(N2CCC2)c2cc(=O)n(C3CC3)cc12)c1cccc(C(F)F)c1F [Example 15, (R)-1-(azetidin-1-yl)-6-cyclopropyl-4-((1-(3-(difluoromethyl)-2-fluorophenyl)ethyl)amino)pyrido[3,4-d]pyridazin-7(6H)-one]
SOS1
  IC50: 5.5 nM
[1]
  half-life at 1 µM: 0.787 h
  CLint scaled at 1 µM: 27 mL/min/kg

## CC(C)C1CCN(c2nnc(N[C@H](C)c3cccc(C(F)F)c3F)c3cn(C4(C)CC4)c(=O)cc23)CC1 [Example 121, (R)-4-((1-(3-(difluoromethyl)-2-fluorophenyl)ethyl)amino)-1-(4-isopropylpiperidin-1-yl)-6-(1-methylcyclopropyl) pyrido[3,4-d]pyridazin-7(6H)-one]
SOS1
  IC50: 5.5 nM
[1]
  half-life at 1 µM: > 5 h
  CLint scaled at 1 µM: < 7.23 mL/min/kg

## C[C@@H](Nc1nnc(N2CCNCC2)c2cc(=O)n(C3(C)CC3)cc12)c1cccc(C(F)F)c1F [Example 78, (R)-4-((1-(3-(difluoromethyl)-2-fluorophenyl)ethyl)amino)-6-(1-methylcyclopropyl)-1-(piperazin-1-yl)pyrido[3,4-d]pyridazin-7(6H)-one]
SOS1
  IC50: 4.6 nM
[1]
  half-life at 1 µM: 4.22 h
  CLint scaled at 1 µM: 8.4 mL/min/kg

## C[C@@H](Nc1nnc(NC2CC2)c2cc(=O)n(C3(C)CC3)cc12)c1cccc(C(F)F)c1F [Example 10, (R)-1-(cyclopropylamino) -4-((1-(3-(difluoromethyl)-2-fluorophenyl)ethyl)amino)-6-(1-methylcyclopropyl) pyrido[3,4-d]pyridazin-7(6H)-one]
SOS1
  IC50: 5.8 nM
[1]
  half-life at 1 µM: 0.483 h
  CLint scaled at 1 µM: 33.6 mL/min/kg

## Cc1c([C@@H](C)Nc2nnc(N3CCC3)c3cc(=O)n(C4CC4)cc23)cccc1C(F)(F)F.O=CO [Example 50, (R)-1-(azetidin-1-yl)-6-cyclopropyl-4-((1-(2-methyl-3-(trifluoromethyl)phenyl)ethyl)amino)pyr ido[3,4-d]pyridazin-7(6H)-one formate]
SOS1
  IC50: 5.8 nM
[1]
  half-life at 1 µM: 2.18 h
  CLint scaled at 1 µM: 14.2 mL/min/kg

## CNc1nnc(N[C@H](C)c2cccc(C#N)c2C)c2cn(C3CC3)c(=O)cc12 [Example 38, (R)-3-(1-((6-cyclopropyl-1-(methylamino)-7-oxo-6,7-dihydropyrido[3,4-d]pyridazin-4-yl)amino)ethyl)-2-methylbenzonitrile]
SOS1
  IC50: 5 nM
[1]
  half-life at 1 µM: 3.55 h
  CLint scaled at 1 µM: 9.7 mL/min/kg

## Cc1nnc(N[C@H](C)c2cccc(C(F)(F)F)c2)c2cn(C3(C)CC3)c(=O)cc12 [comparative compound2, (R)-1-methyl-6-(1-methylcyclopropyl)-4-((1-(3-(trifluoromethyl)phenyl)ethyl)amino)pyrido[3,4-d]pyridazin-7(6H)-one hydrochloride, reference compound]
[2]
  IC50: 377 nM

## Cc1c([C@@H](C)Nc2nnc(C)c3cc(=O)n(C4(C)CC4)cc23)cccc1C(F)(F)F [comparative compound 1, (R)-1-methyl-4-((1-(2-methyl-3-(trifluoromethyl)phenyl)ethyl)amino)-6-(1-methylcyclopropyl) pyrido[3,4-d]pyridazin-7(6H)-one, reference compound]
[2]
  IC50: 282 nM

## CCN1CCN(c2nnc(N[C@H](C)c3cccc(C#N)c3C)c3cn(C)c(=O)cc23)CC1 [Example 145, (R)-3-(1-((1-(4-ethylpiperazin-1-yl)-6-methyl-7-oxo-6,7-dihydropyrido[3,4-d]pyridazin-4-yl)amino)ethyl)-2-methylbenzonitrile formate]
SOS1
  IC50: 7.8 nM

## C[C@@H](Nc1nnc(N2CC3(CCOCC3)C2)c2cc(=O)n(C3(C)CC3)cc12)c1cccc(C(F)F)c1F [Example 182, (R)-4-((1-(3-(difluoromethyl)-2-fluorophenyl)ethyl)amino)-6-(1-methylcyclopropyl)-1-(7-oxa-2-azaspiro[3.5]nonan-2-yl)pyrido[3,4-d]pyridazin-7(6H)-one]
SOS1
  IC50: 5 nM

## C[C@@H](Nc1nnc(-n2cccn2)c2cc(=O)n(C3(C)CC3)cc12)c1cccc(C(F)F)c1F [Example 33, (R)-4-((1-(3-(difluoromethyl)-2-fluorophenyl)ethyl)amino)-6-(1-methylcyclopropyl)-1-(1H-pyrazol-1-yl)pyrido[3,4-d]pyridazin-7(6H)-one]
SOS1
  IC50: 22.5 nM

## C[C@@H](Nc1nnc(N2CC3CCCC3C2)c2cc(=O)n(C3(C)CC3)cc12)c1cccc(C(F)F)c1F (stereo partly drawn) [Example 188, 4-(((R)-1-(3-(difluoromethyl)-2-fluorophenyl)ethyl)amino)-1-(hexahydrocyclopenta[c]pyrrol-2(1H)-yl)-6-(1-methylcyclopropyl) pyrido[3,4-d]pyridazin-7(6H)-one]
SOS1
  IC50: 3.1 nM

## C[C@@H](Nc1nnc(-n2ccnc2)c2cc(=O)n(C3CC3)cc12)c1cccc(C(F)F)c1F [Example 31, (R)-6-cyclopropyl-4-((1-(3-(difluoromethyl)-2-fluorophenyl)ethyl)amino)-1-(1H-imidazol-1-yl)pyrido[3,4-d]pyridazin-7(6H)-one]
SOS1
  IC50: 19.5 nM

## CCN(CC)c1nnc(N[C@H](C)c2cccc(C#N)c2C)c2cn(C3CC3)c(=O)cc12 [Example 40, (R)-3-(1-((6-cyclopropyl-1-(diethylamino)-7-oxo-6,7-dihydropyrido[3,4-d]pyridazin-4-yl)amino)ethyl)-2-methylbenzonitrile]
SOS1
  IC50: 32.5 nM
